For experiment [1], the target named is T1, Fyn (Homo sapiens, UniProt P06241).
T1 construct: purchased Carna Biosciences 08-168
The experiment is described as follows: HTRF KinEASE-TK enzymatic assay, Fyn. The experiment is classed as biochemical. The note with it: for Inhibition (1 μM, %) Fyn: compound at 1 μM; for Inhibition (1 μM, %) Fyn / IC50: ATP at Km (51.76 µM), average of two independent experiments. (TR-FRET usually uses a lanthanide donor and a delayed reading to cut background.)

Experiment [2] addresses T2, Src (Homo sapiens, UniProt P12931).
T2 construct: purchased Carna Biosciences 08-173
The experiment is described as follows: HTRF KinEASE-TK enzymatic assay, Src. The experiment is classed as biochemical. The note with it: for Inhibition (1 μM, %) Src: compound at 1 μM, ATP at Km (16 µM), average of two independent experiments.

Experiment [3] relates to T98G GBM cell line. The experiment is described as follows: Cell proliferation inhibition assay (MTT), T98G. The experiment is classed as cell-based. The conditions noted are these: 72 h, mean of at least three independent experiments, read-out: Antiproliferative activity IC50, T98G. On the procedure: (§1) GBM cell lines U87, U251, and T98G (purchased from the American Type Culture Collection Company, Manassas, VA) were cultured in Roswell Park Memorial Institute (RPMI) 1640 medium containing 10% foetal bovine serum (FBS) at 37 °C in 5% CO2 incubator. The U87-EGFRvIII cell line established with EGFRvIII, kindly provided by Professor Xingmei Zhang, and grown in DMEN supplement with 10% FBS and […] G418 (Sigma-Aldrich, St. Louis, MO) at 37 °C in 5% CO2 incubator. The anti-proliferative activities of the compounds to be tested against four glioblastoma cell lines were determined by standard MTT method. In order to determine the anti-proliferation effect of the tested compounds, four cell lines were inoculated at a density of 2 × 10^3 cells/ml and treated with compounds at a concentration of 1–100 µM. The cells were co-incubated with different concentrations of the tested drugs for 72 h, and 10% MTT solution diluted in 100 µL medium was added. After 4 h of incubation, the absorbance value of each hole was measured at […] with an enzyme-linked immunosorbent assay plate reader. All compounds were tested three times in each cell line.

Experiment [4] concerns U87-EGFRvIII GBM cell line. The experiment is described as follows: Cell proliferation inhibition assay (MTT), U87-EGFRvIII. The note with it: 72 h, mean of at least three independent experiments, read-out: Antiproliferative activity IC50, U87-EGFRvIII. Format: cell-based.
Experiment [5] concerns U87 GBM cell line. The experiment is described as follows: Cell proliferation inhibition assay (MTT), U87. The experiment is classed as cell-based. The conditions noted are these: 72 h, mean of at least three independent experiments, read-out: Antiproliferative activity IC50, U87. On the procedure:
as §1

Experiment [6] deals with U251 GBM cell line. The experiment is described as follows: Cell proliferation inhibition assay (MTT), U251. The experiment is classed as cell-based. The conditions noted are these: mean of at least three independent experiments, read-out: Antiproliferative activity IC50, U251. As to the method: as §1

Where two headings read alike, the source gives them in different places. Bounds are passed on as bounds.

T1 sequence (P06241 whole entry): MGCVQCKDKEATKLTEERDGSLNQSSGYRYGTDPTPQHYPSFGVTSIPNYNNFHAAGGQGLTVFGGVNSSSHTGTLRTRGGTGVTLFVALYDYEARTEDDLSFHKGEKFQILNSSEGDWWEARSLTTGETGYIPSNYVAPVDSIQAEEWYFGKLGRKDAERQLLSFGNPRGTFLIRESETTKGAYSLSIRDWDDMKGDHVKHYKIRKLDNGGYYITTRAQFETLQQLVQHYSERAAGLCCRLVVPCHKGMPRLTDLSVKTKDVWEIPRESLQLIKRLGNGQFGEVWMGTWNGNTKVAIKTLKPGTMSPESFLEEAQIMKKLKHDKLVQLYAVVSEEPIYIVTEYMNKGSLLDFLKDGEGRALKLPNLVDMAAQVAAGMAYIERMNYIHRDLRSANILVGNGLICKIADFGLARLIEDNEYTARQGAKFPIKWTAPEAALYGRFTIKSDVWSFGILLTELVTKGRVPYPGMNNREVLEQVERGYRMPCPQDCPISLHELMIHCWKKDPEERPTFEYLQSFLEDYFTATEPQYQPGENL

A word on the inhibition: it is the relative decrease from the control value, in per cent. For the molecule `Nc1nccc2c1n(-c1ccc3[nH]ccc3c1)c(=O)n2C1CCCC1` [Compound 1r, 4-amino-1-cyclopentyl-3-(1H-indol-5-yl)-1,3-dihydro-2H-imidazo[4,5-c]pyridin-2-one], the inhibition at 1 µM in experiment [1] came to 30%; in experiment [2] it was 84%.
On the same counts, the results for `COc1ccc(-n2c(=O)n(C3CCCC3)c3ccnc(N)c32)cc1` [Compound 1l, 4-amino-1-cyclopentyl-3-(4-methoxyphenyl)-1,3-dihydro-2H-imidazo[4,5-c]pyridin-2-one] are 28% and 91%.
On the same counts, the results for `Nc1nccc2c1n(-c1ccc(CO)cc1)c(=O)n2C1CCCC1` [Compound 1o, 4-amino-1-cyclopentyl-3-(4-(hydroxymethyl)phenyl)-1,3-dihydro-2H-imidazo[4,5-c]pyridin-2-one] are 20% and 19%.
Regarding “4-amino-1-(3-bromophenyl)-3-(4-chlorophenyl)-1H-imidazo[4,5-c]pyridin-2(3H)-one [Compound 1c]”, the “Inhibition (1 μM, %) Fyn” value in experiment [1] is listed as 31%. Further, the “Inhibition (1 μM, %) Src” value in experiment [2] stood at 68%.
For `N#Cc1ccc(-n2c(=O)n(C3CCCC3)c3ccnc(N)c32)cc1` [Compound 1n, 4-(4-amino-1-cyclopentyl-2-oxo-1,2-dihydro-3H-imidazo[4,5-c]pyridin-3-yl)benzonitrile], the inhibition at 1 µM was 44% in experiment [1] and 45% in experiment [2].
By IC50 is commonly meant the concentration at which inhibition is half-maximal. Consider `Nc1nccc2c1n(-c1ccc(Oc3ccccc3)cc1)c(=O)n2C1CCCC1` [Compound 1s, 4-amino-1-cyclopentyl-3-(4-phenoxyphenyl)-1,3-dihydro-2H-imidazo[4,5-c]pyridin-2-one], for which the IC50 in experiment [3] amounted to 16.4 ± 2.12 µM; in experiment [3] (Homo sapiens, T98G), 16.4 µM; in experiment [4], 50.5 µM; in experiment [5], 30.3 ± 0.84 µM; in experiment [1], 0.21 µM; in experiment [2], 0.15 µM. The IC50 was 24.6 ± 2.28 µM in experiment [6] (72 h) and 24.6 µM in experiment [6] (Homo sapiens, U-251, 72 h). For the same molecule, the figures for the inhibition at 1 µM in experiment [1] and in experiment [2] were 90% and 93%, respectively.
Regarding `Nc1nccc2c1n(-c1ccc(Cl)cc1)c(=O)n2C1CCCC1` [Compound 1d, 4-amino-3-(4-chlorophenyl)-1-cyclopentyl-1,3-dihydro-2H-imidazo[4,5-c]pyridin-2-one], the IC50 turned out to be 20.6 ± 0.3 µM in experiment [3] (Homo sapiens, T98G); 67.2 ± 3.2 µM in experiment [4]; 63.3 ± 10.5 µM in experiment [5]; 0.24 µM in experiment [1]; 0.19 µM in experiment [2]; 33.3 ± 3.36 µM in experiment [6] (Homo sapiens, U-251, 72 h). The inhibition at 1 µM came out at 90% in experiment [1] and 96% in experiment [2].
For the molecule `CC(C)(C)n1nc(-c2ccc(Cl)cc2)c2c(N)ncnc21` [PP2, reference compound], the IC50 was found to be 12.5 ± 2.37 µM in experiment [3] (Homo sapiens, T98G); 39.9 ± 6.91 µM in experiment [5]; 21.1 ± 2.16 µM in experiment [6] (Homo sapiens, U-251, 72 h). In addition, the inhibition at 1 µM in experiment [2] turned out to be 93%.
Turning to `Nc1nccc2c1n(-c1ccc3c(c1)OCO3)c(=O)n2C1CCCC1` [Compound 1q, 4-amino-3-(benzo[d][1,3]dioxol-5-yl)-1-cyclopentyl-1H-imidazo[4,5-c]pyridin-2(3H)-one], the IC50 is 20.7 ± 0.67 µM in experiment [3] (Homo sapiens, T98G); 69 ± 8.39 µM in experiment [4]; 47 ± 3.78 µM in experiment [5]; 0.73 µM in experiment [1]; 0.22 µM in experiment [2]; 30 ± 0.93 µM in experiment [6] (Homo sapiens, U-251, 72 h). Besides, the inhibition at 1 µM in experiment [1] amounted to 74%; in experiment [2], 85%.
Consider `Cc1ccc(-n2c(=O)n(C3CCCC3)c3ccnc(N)c32)cc1` [Compound 1k, 4-amino-1-cyclopentyl-3-(p-tolyl)-1,3-dihydro-2H-imidazo[4,5-c]pyridin-2-one], for which the inhibition at 1 µM in experiment [1] turned out to be 65%; in experiment [2], 88%.
On to `COCCn1c(=O)n(-c2ccc(Cl)cc2)c2c(N)nccc21` [Compound 1i, 4-amino-3-(4-chlorophenyl)-1-(2-methoxyethyl)-1H-imidazo[4,5-c]pyridin-2(3H)-one], for which the inhibition at 1 µM in experiment [1] is 24%; in experiment [2], 65%.
Turning to `Nc1nccc2c1n(-c1ccc(Cl)cc1)c(=O)n2-c1ccccc1` [Compound 1a, 4-amino-3-(4-chlorophenyl)-1-phenyl-1H-imidazo[4,5-c]pyridin-2(3H)-one], the values for the inhibition at 1 µM in experiment [1] and in experiment [2] were 35% and 78%, respectively.
For the molecule “4-amino-3-(4-chlorophenyl)-1-(m-tolyl)-1H-imidazo[4,5-c]pyridin-2(3H)-one [Compound 1b]”, the “Inhibition (1 μM, %) Fyn” value in experiment [1] is on record as 11%. Further, the “Inhibition (1 μM, %) Src” value in experiment [2] was found to be 54%.
Take `CC(C)Cn1c(=O)n(-c2ccc(Cl)cc2)c2c(N)nccc21` [Compound 1g, 4-amino-3-(4-chlorophenyl)-1-isobutyl-1H-imidazo[4,5-c]pyridin-2(3H)-one]: the inhibition at 1 µM was found to be 19% in experiment [1] and 16% in experiment [2].
As to `Nc1nccc2c1n(-c1ccc(Cl)cc1)c(=O)n2C1CCCCC1` [Compound 1e, 4-amino-3-(4-chlorophenyl)-1-cyclohexyl-1H-imidazo[4,5-c]pyridin-2(3H)-one], the half-maximal inhibitory concentration (IC50) in experiment [3] (Homo sapiens, T98G) was 20.1 ± 0.67 µM; in experiment [4] it was more than 100 µM; in experiment [5] it was 53.6 ± 2.51 µM; in experiment [1] it was 0.58 µM; in experiment [2], 0.073 µM; in experiment [6] (Homo sapiens, U-251, 72 h), 36.1 ± 2.53 µM. Moreover, the inhibition at 1 µM came to 76% in experiment [1] and 88% in experiment [2].
`CN(C)CCn1c(=O)n(-c2ccc(Cl)cc2)c2c(N)nccc21` [Compound 1h, 4-amino-3-(4-chlorophenyl)-1-(2-(dimethylamino)ethyl)-1H-imidazo[4,5-c]pyridin-2(3H)-one]: the inhibition at 1 µM in experiment [1] is 19%; in experiment [2], 18%.
The matching figures for `Nc1nccc2c1n(-c1ccc(C(F)(F)F)cc1)c(=O)n2C1CCCC1` [Compound 1m, 4-amino-1-cyclopentyl-3-(4-(trifluoromethyl)phenyl)-1,3-dihydro-2H-imidazo[4,5-c]pyridin-2-one]: -2% and 11%.
Turning to `Nc1nccc2c1n(-c1ccc(Cl)cc1)c(=O)n2CCN1CCOCC1` [Compound 1j, 4-amino-3-(4-chlorophenyl)-1-(2-morpholinoethyl)-1H-imidazo[4,5-c]pyridin-2(3H)-one], the inhibition at 1 µM amounted to 12% in experiment [1] and 5% in experiment [2].
For the molecule `CC(C)(C)n1c(=O)n(-c2ccc(Cl)cc2)c2c(N)nccc21` [Compound 1f, 4-amino-1-(tert-butyl)-3-(4-chlorophenyl)-1H-imidazo[4,5-c]pyridin-2(3H)-one], the inhibition at 1 µM is 62% in experiment [1] and 84% in experiment [2].
On the same counts, the results for `Nc1nccc2c1n(-c1cccc(F)c1)c(=O)n2C1CCCC1` [Compound 1p, 4-amino-1-cyclopentyl-3-(3-fluorophenyl)-1,3-dihydro-2H-imidazo[4,5-c]pyridin-2-one] are 19% and 66%.
